Experimental data reported in patent publication US20090203753A1, “7-(2-amino-1-hydroxy-ethyl)-4-hydroxybenzothiazol-2(3H)-one-derivatives as beta2 adrenoreceptor agonists” (AstraZeneca AB, priority 2005, published 2009).
pEC50: −log10 of the molar value. Counter-ions that a name gives are not always drawn.

Columns and labels:
[1] = molecular target: T1, recombinant human Dopamine Subtype D2s receptors (Homo sapiens, UniProt P14416); test: Dopamine D2 selectivity assay, [3H]-spiperone binding to membranes; conditions: read-out: D2 bind pIC50 (converted)
T1 construct: purchased Perkin Elmer
Experimental: (§1) Membranes containing recombinant human Dopamine Subtype D2s receptors were obtained from Perkin Elmer. These were diluted in Assay Buffer (50 mM HEPES, 1 nM EDTA, 120 mM NaCl, 0.1% gelatin, pH 7.4) to provide a final concentration of membranes that gave a clear window between maximum and minimum specific binding.
(§2) Assays were performed in U-bottomed 96-well polypropylene plates. 30 μL [^3H]-spiperone (0.16 nM final concentration) and 30 μL of test compound (10× final concentration) were added to each test well. For each assay plate 8 replicates were obtained for [^3H]-spiperone binding in the presence of 30 μL vehicle (10% (v/v) DMSO in Assay Buffer; defining maximum binding) or 30 μL Haloperidol (10 μM final concentration; defining non-specific binding (NSB)). Membranes were then added to achieve a final volume of 300 μL. The plates were incubated for 2 hours at room temperature and then filtered onto PEI coated GF/B filter plates, pre-soaked for 1 hour in Assay Buffer, using a 96-well plate Tomtec cell harvester. Five washes with 250 μL wash buffer (50 mM HEPES, 1 mM EDTA, 120 mM NaCl, pH 7.4) were performed at 4° C. to remove unbound radioactivity. The plates were dried then sealed from underneath using Packard plate sealers and MicroScint-O (50 μL) was added to each well. The plates were sealed (TopSeal A) and filter-bound radioactivity was measured with a scintillation counter (TopCount, Packard BioScience) using a 3-minute counting protocol.
(§3) Total specific binding (B0) was determined by subtracting the mean NSB from the mean maximum binding. NSB values were also subtracted from values from all other wells.

β2 receptor [2] = molecular target: T2, β2 receptor (Homo sapiens, UniProt P07550); test: Alternative adrenergic β2 mediated cAMP production in H292 cells (60 minutes with test compound); assay type: cell-based; conditions: for EC50: cAMP, 60 minutes incubation with compound, 300 μM rolipram, read-out: β2 pEC50 (converted); for β2 Int Act: fraction relative to the maximum activity determined for formoterol, 60 minutes incubation
T2 construct: endogenous in cells; host or cells: H292 cells
Experimental: Alternative Adrenergic (β2 Mediated cAMP Production
H292 cells were grown in 225 cm2 flasks incubator at 37° C., 5% CO2 in RPMI medium containing, 10% (v/v) FBS (foetal bovine serum) and 2 mM L-glutamine.
Adherent H292 cells were removed from tissue culture flasks by treatment with Accutase™ cell detachment solution for 15 minutes. Flasks were incubated for 15 minutes in a humidified incubator at 37° C., 5% CO2. Detached cells were re-suspended in RPMI media (containing 10% (v/v) FBS and 2 mM L-glutamine) at 0.05×10^6 cells per mL. 5000 cells in 100 μL were added to each well of a tissue-culture-treated 96-well plate and the cells incubated overnight in a humidified incubator at 37° C., 5% CO2. The culture media was removed and cells were washed twice with 100 μL assay buffer and replaced with 50 μL assay buffer (HBSS solution containing 10 mM HEPES pH7.4 and 5 mM glucose). Cells were rested at room temperature for 20 minutes after which time 25 μL of rolipram (1.2 mM made up in assay buffer containing 2.4% (v/v) dimethylsulphoxide) was added. Cells were incubated with rolipram for 10 minutes after which time test compounds were added and the cells were incubated for 60 minutes at room temperature. The final rolipram concentration in the assay was 300 μM and final vehicle concentration was 1.6% (v/v) dimethylsulphoxide. The reaction was stopped by removing supernatants, washing once with 100 μL assay buffer and replacing with 50 μL lysis buffer. The cell monolayer was frozen at −80° C. for 30 minutes (or overnight).
The concentration of cAMP (cyclic adenosine monophosphate) in the cell lysate was determined using AlphaScreen™ methodology. The frozen cell plate was thawed for 20 minutes on a plate shaker then 10 μL of the cell lysate was transferred to a 96-well white plate. 40 μL of mixed AlphaScreen™ detection beads pre-incubated with biotinylated cAMP, was added to each well and the plate incubated at room temperature for 10 hours in the dark. The AlphaScreen™ signal was measured using an EnVision spectrophotometer (Perkin-Elmer Inc.) with the recommended manufacturer's settings. cAMP concentrations were determined by reference to a calibration curve determined in the same experiment using standard cAMP concentrations. Concentration response curves for agonists were constructed and data was fitted to a four parameter logistic equation to determine both the pEC50 and Intrinsic Activity. […]

[3] = molecular target: T3, recombinant human α1D receptor (Homo sapiens, UniProt P25100); test: Adrenergic α1D selectivity assay, [3H]-prazosin binding to HEK293 membranes; conditions: read-out: α1 bind pIC50 (converted)
T3 construct: expressed in transfected cells; host or cells: HEK293
T3 sequence (P25100 1-572): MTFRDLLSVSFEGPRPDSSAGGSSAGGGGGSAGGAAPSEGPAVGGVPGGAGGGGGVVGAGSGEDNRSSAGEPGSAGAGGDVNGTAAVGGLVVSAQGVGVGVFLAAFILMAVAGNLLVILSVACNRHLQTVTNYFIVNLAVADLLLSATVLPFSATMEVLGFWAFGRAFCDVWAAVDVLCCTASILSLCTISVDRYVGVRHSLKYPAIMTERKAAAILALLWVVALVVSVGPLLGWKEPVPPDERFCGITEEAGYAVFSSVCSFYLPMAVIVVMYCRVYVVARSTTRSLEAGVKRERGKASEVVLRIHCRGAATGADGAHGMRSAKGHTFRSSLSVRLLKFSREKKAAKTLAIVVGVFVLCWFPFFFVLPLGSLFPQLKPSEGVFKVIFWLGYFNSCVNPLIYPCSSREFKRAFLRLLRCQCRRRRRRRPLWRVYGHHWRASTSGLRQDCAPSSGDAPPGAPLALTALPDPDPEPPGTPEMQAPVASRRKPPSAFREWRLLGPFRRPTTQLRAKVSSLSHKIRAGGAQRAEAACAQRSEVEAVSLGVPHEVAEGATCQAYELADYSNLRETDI
Experimental: Membranes were prepared from human embryonic kidney 293 (HEK293) cells expressing recombinant human α1D receptor. These were diluted in Assay Buffer (50 mM HEPES, 1 mM EDTA, 0.1% gelatin, pH 7.4) to provide a final concentration of membranes that gave a clear window between maximum and minimum specific binding.
as §2, with “10” for “30”, “[^3H]-prazosin (0.3” for “[^3H]-spiperone (0.16”, “[^3H]-prazosin” for “[^3H]-spiperone”, “BMY7378” for “Haloperidol”, “100” for “300”, “EDTA,” for “EDTA, 120 mM NaCl,”
as §3

[4] = molecular target: T4, recombinant human adrenergic beta 1 receptors (Homo sapiens, UniProt P08588); test: Adrenergic β1 selectivity assay, [125I]-Iodocyanopindolol binding to membranes; conditions: inhibition of [125I]-Iodocyanopindolol binding (0.036 nM); read-out: β1 bind pIC50 (converted)
T4 construct: purchased Euroscreen
Experimental: as §1, with “adrenergic beta 1” for “Dopamine Subtype D2s”, “Euroscreen.” for “Perkin Elmer.”, “mM” for “nM”
as §2, with “10” for “30”, “[^125I]-Iodocyanopindolol (0.036” for “[^3H]-spiperone (0.16”, “[^125I]-Iodocyanopindolol” for “[^3H]-spiperone”, “Propranolol” for “Haloperidol”, “100” for “300”
as §3

β2 receptor [5] = molecular target: T2, β2 receptor; test: β2 mediated cAMP production in H292 cells, AlphaScreen cAMP detection (10 minutes with test compound); assay type: cell-based; conditions: for pEC50: cAMP, 10 minutes incubation with compound, 300 μM rolipram; for Intrinsic Activity: fraction relative to the maximum activity determined for formoterol, 10 minutes incubation
Experimental: H292 cells were grown in RPMI (Roswell Park Memorial Institute) medium containing, 10% (v/v) FBS (foetal bovine serum) and 2 mM L-glutamine. Cells were grown in 225 cm2 flasks containing 25 mL media in a humidified incubator at 37° C., 5% CO2. Cells were harvested from the flask and passaged at a 1 in 10 dilution once per week.
The media from flasks containing H292 cells was removed, rinsed with 10 mL PBS (phosphate buffered saline) and replaced with 10 mL Accutase™ cell detachment solution. Flasks were incubated for 15 minutes in a humidified incubator at 37° C., 5% CO2. The cell suspension was counted and the cells re-suspended in RPMI media (containing 10% (v/v) FBS and 2 mM L-glutamine) at 0.05×10^6 cells per mL. 5000 cells in 100 μL were added to each well of a tissue-culture-treated 96-well plate and the cells incubated overnight in a humidified incubator at 37° C., 5% CO2. The culture media was removed, washed twice with 100 μL assay buffer and replaced with 50 μL assay buffer. Cells were rested at room temperature for 20 minutes after which time 25 μL of rolipram (1.2 mM made up in assay buffer containing 2.4% (v/v) dimethylsulphoxide) was added. Cells were incubated with rolipram for 10 minutes after which time test compounds (made up as ×4 concentrated stocks in assay buffer containing 4% (v/v) dimethylsulphoxide) were added and the cells were incubated for 10 minutes at room temperature. Final rolipram concentration in the assay was 300 μM and final vehicle concentration was 1.6% (v/v) dimethylsulphoxide. The reaction was stopped by removing supernatants, washing once with 100 μL assay buffer and replacing with 50 μL lysis buffer. The cell monolayer was frozen at −80° C. for 30 minutes (or overnight).
The concentration of cAMP (cyclic adenosine monophosphate) in the cell lysate was determined using the AlphaScreen™ methodology. The frozen cell plate was thawed for 20 minutes on a plate shaker then 10 μL of the cell lysate was transferred to a 96-well white plate. 40 μL of mixed AlphaScreen™ detection beads (containing equal volumes of donor beads (pre-incubated with biotinylated cAMP in the dark for 30 minutes) and acceptor beads), was added to each well and the plate incubated at room temperature for 10 hours in the dark. The AlphaScreen™ signal was measured using an EnVision spectrophotometer (Perkin-Elmer Inc.) with the recommended manufacturer's settings. cAMP concentrations were determined by reference to a calibration curve determined in the same experiment using standard cAMP concentrations (made up in lysis buffer in a 96-well tissue-culture-treated plate and frozen/thawed alongside the test samples) and detected using the same protocol. Concentration response curves for agonists were constructed to determine both the pEC50 and Intrinsic Activity.

T4 sequence (P08588 whole entry): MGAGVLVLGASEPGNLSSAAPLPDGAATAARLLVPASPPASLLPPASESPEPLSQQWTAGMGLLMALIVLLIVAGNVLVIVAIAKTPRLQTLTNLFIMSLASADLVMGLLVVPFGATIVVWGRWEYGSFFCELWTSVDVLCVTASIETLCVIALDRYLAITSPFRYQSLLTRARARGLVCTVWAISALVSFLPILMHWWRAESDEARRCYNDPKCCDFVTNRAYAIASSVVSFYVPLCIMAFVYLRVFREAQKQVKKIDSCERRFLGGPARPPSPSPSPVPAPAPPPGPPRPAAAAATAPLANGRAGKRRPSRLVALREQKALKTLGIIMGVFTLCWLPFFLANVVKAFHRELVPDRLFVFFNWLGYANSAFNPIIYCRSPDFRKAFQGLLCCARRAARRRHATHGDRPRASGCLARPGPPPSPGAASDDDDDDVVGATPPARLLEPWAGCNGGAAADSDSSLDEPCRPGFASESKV
T2 sequence (P07550 whole entry): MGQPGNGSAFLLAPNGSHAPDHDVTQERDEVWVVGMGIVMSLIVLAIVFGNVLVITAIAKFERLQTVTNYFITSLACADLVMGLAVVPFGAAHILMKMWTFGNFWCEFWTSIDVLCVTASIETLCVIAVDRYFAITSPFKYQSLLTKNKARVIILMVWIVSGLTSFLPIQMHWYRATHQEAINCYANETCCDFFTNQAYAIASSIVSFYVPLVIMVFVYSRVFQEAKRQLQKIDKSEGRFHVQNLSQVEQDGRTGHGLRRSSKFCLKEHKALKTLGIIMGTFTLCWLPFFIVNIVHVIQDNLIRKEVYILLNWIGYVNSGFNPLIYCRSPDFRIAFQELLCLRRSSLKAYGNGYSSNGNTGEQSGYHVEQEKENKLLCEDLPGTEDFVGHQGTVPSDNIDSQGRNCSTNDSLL
T1 sequence (P14416 1-414 isoform P14416-2): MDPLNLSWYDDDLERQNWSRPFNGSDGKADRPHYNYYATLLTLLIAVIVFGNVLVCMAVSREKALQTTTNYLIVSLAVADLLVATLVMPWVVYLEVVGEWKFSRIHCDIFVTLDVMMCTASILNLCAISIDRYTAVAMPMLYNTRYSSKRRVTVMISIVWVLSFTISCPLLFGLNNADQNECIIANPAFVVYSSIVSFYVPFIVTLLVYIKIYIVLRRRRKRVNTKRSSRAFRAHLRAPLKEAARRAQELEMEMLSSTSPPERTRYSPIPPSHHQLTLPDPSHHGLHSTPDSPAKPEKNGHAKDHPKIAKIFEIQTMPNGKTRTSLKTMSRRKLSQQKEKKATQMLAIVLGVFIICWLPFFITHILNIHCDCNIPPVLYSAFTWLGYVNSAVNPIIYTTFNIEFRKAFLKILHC

SMILES | IC50 [1] [nM] | EC50 (β2 receptor [2]) [nM] | β2 Int Act (β2 receptor [2]) | IC50 [3] [nM] | IC50 [4] [nM] | pEC50 (β2 receptor [5]) | Intrinsic Activity (β2 receptor [5])
CCCCN(CCNC[C@H](O)c1ccc(O)c2[nH]c(=O)sc12)C(=O)CCOCCc1ccccc1.Cl [Example 2, N-Butyl-N-(2-{[(2R)-2-hydroxy-2-(4-hydroxy-2-oxo-2,3-dihydro-1,3-benzothiazol-7-yl)ethyl]amino}ethyl)-3-(2-phenylethoxy)propanamide Hydrochloride] | > 10000 | 1 | 0.9 | 2510 | 6.31 | – | –
CCN(CC)CCN(CCNC[C@H](O)c1ccc(O)c2[nH]c(=O)sc12)C(=O)CCOCCc1cccc(Cl)c1 [Example 9, 3-[2-(3-Chlorophenyl)ethoxy]-N-[2-(diethylamino)ethyl]-N-(2-{[(2R)-2-hydroxy-2-(4-hydroxy-2-oxo-2,3-dihydro-1,3-benzothiazol-7-yl)ethyl]amino}ethyl)propanamide] | > 10000 | 3.98 | 0.9 | 2000 | 1580 | – | –

Results, then the compound that gave them:

IC50 [1] [nM] | EC50 (β2 receptor [2]) [nM] | β2 Int Act (β2 receptor [2]) | IC50 [3] [nM] | IC50 [4] [nM] | pEC50 (β2 receptor [5]) | Intrinsic Activity (β2 receptor [5]) | SMILES
– | 1.26 | 0.9 | – | 3.16 | 8.90 | 1.1 | O=C(CCOCCc1ccccc1)N(CCNC[C@H](O)c1ccc(O)c2[nH]c(=O)sc12)CCc1ccccc1 [Example 4, N-(2-{[(2R)-2-Hydroxy-2-(4-hydroxy-2-oxo-2,3-dihydro-1,3-benzothiazol-7-yl)ethyl]amino}ethyl)-3-(2-phenylethoxy)-N-(2-phenylethyl)propanamide]
– | – | – | – | – | 7.70 | 0.7 | CCCCN(CCNC[C@H](O)c1ccc(OCc2ccccc2)c2[nH]c(=O)sc12)C(=O)CCOCCc1ccccc1 [Example 1, N-[2-[2-(4-Benzyloxy-2-oxo-3H-benzothiazol-7-yl)-(2R)-2-hydroxy-ethyl]aminoethyl]-N-butyl-3-phenethyloxy-propanamide]
– | 0.2 | 1 | – | 12.6 | 9.50 | 1.0 | CN(CCNC[C@H](O)c1ccc(O)c2[nH]c(=O)sc12)C(=O)CCOCCc1ccccc1 [Example 5, N-(2-{[(2R)-2-Hydroxy-2-(4-hydroxy-2-oxo-2,3-dihydro-1,3-benzothiazol-7-yl)ethyl]amino}ethyl)-N-methyl-3-(2-phenylethoxy)propanamide Trifluoroacetate]
